One test concerns the target Aβ4230k (Homo sapiens, UniProt P05067). In words: Coincubation with seedless Aβ42 (fibrillization), observed by EM. It is filed as biochemical.
Test [1] addresses T1, Sup35 NM protein (Saccharomyces cerevisiae, UniProt P05453).
T1 construct: Soluble Sup35 NM protein (“NM”) was tested for aggregation
T1 sequence (P05453 1-253 limits assumed): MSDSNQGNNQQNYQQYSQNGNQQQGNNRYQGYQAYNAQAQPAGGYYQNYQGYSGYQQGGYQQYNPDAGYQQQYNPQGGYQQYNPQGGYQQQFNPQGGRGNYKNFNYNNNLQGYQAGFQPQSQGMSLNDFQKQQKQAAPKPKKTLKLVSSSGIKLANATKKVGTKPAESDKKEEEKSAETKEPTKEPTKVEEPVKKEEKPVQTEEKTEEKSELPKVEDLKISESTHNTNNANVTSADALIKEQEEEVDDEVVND
The test can be described thus: NM seed assay. Type of test: biochemical, yeast. As to conditions: disaggregated monomers used as seed at 2% or 5%. How it is done: Monomers of NM disaggregated by treatment with DAPH and DAPH analogs (see below) were tested for the ability to “seed” new NM fibers. Disaggregated monomers were used at 2% or 5% as described above for the NM aggregation assay.
(§1) Congo red was added to NM aggregation, NM disaggregation or NM seed reaction mixtures following incubation to a final concentration of 10 μM. After 30 min at 25° C., absorbances at 320, 477, and 540 nm were determined. Congo red dye binding was measured by using the equation [(OD540/25,295)−(OD477/46,306)] (Klunk et al., J. Histochem. Cytochem. 37:1273-1279, 1989) as described by Schirmer and Lindquist (Proc. Natl. Acad. Sci USA 94:13932-13937, 1997).

Test [2] addresses T1, Sup35 NM protein. In words: NM aggregation assay. As to conditions: soluble NM 5 μM. It is filed as biochemical, yeast. How it is done: Soluble Sup35 NM protein (“NM”) was tested for aggregation in the presence of DAPH, DAPH analogs or vehicle control (DMSO). NM protein (5 μM) was aggregated in the presence of DAPH (0-20 μM), DAPH analogs (0-20 μM) or DMSO (0-2% v/v). The assay mixture was incubated for 24 hr at 25° C., then tested for Congo Red binding to determine the extent of NM fiber formation.
as §1
Soluble Sup35 NM (“NM”) at 5 μM was tested for aggregation in the presence of DAPH, DAPH analogs or vehicle control (DMSO). Aggregation of NM was inhibited by up to 100% (see FIG. 1). Inhibition of NM aggregation was concentration dependent.

Test [3] deals with RML strain of mouse scrapie. Type of test: in vivo, CD1 mice.
The target in another test is Aβ42Total (Homo sapiens, UniProt P05067). The test can be described thus: Reversal of aggregated Aβ42Total fibrils, ThT assay. To be noted: depends on the concentration of compound. Type of test: biochemical. How it is done: Aβ42Total is unfractionated synthetic Aβ42 that was dissolved in water at pH 8-9 by using NH3 or at pH 10-11 by using dilute NaOH and stored at −40° C. Experimental samples were prepared by diluting the stock solution of Aβ42 to 10 μM (unless noted otherwise) in Tyrode's solution 2 mM Ca (150 mM NaCl/3 mM KCl/10 mM Hepes, pH 7.4/2 mM CaCl2/10 mM D-glucose, pH 7.4/0.02% Na azide). The synthetic Aβ42 was dissolved in water at a pH of ˜8 and then stored at −20° C. until diluted into Tyrode's Solution/2 mM Ca (pH 7.4). This preparation is “Aβ42Total”. To aggregate for use in experiments, it was preincubated for 24 or 48 h at 37° C. without stirring. To measure β-sheet formation, ThT was added to protein or peptide reaction mixtures, such as Aβ samples or NM aggregation, NM disaggregation or NM seed reaction mixtures following incubation and fluorescent measurements were read according to standard procedures. […] ThT fluorescence is measured at room temperature (e.g., in a Fluoroskan II at […] or a FLUOstar Optima plate-reader (BMG Lab Technologies, Durham, N.C.) at Ex=440 nm and Em=480 nm). The ThT fluorescence spectrum is measured in an spectrofluorimeter (e.g., f4500, Hitachi, Tokyo) at Ex=435 nm and Em=450-550 nm. Fibrils of aggregated Aβ42Total give a strong ThT fluorescence signal, indicating high β-sheet content.

A further test deals with Aβ fibrils (Homo sapiens, UniProt P05067). In words: Reversal of preformed Aβ fibrils, observed by EM. It is filed as biochemical. To be noted: Aβ aggregated 24 h at pH 7.4, then another 24 h with equimolar compound; vehicle 1% DMSO. How it is done:
Aβ42Total is unfractionated synthetic Aβ42 that was dissolved in water at pH 8-9 by using NH3 or at pH 10-11 by using dilute NaOH and stored at −40° C. Experimental samples were prepared by diluting the stock solution of Aβ42 to 10 μM (unless noted otherwise) in Tyrode's solution 2 mM Ca (150 mM NaCl/3 mM KCl/10 mM Hepes, pH 7.4/2 mM CaCl2/10 mM D-glucose, pH 7.4/0.02% Na azide). The synthetic Aβ42 was dissolved in water at a pH of ˜8 and then stored at −20° C. until diluted into Tyrode's Solution/2 mM Ca (pH 7.4). This preparation is “Aβ42Total”. To aggregate for use in experiments, it was preincubated for 24 or 48 h at 37° C. without stirring. Negative-staining EM was used to visualize the kinetics and morphology of Aβ42 fibrillization over time, with and without the presence of DAPH analogs. Samples of 10 μM seedless Aβ42 (Aβ4230k) were incubated for a predetermined amount of time at 37° C. and vigorously vortex mixed immediately before and after incubation. Very small volumes, typically 5 μl, of each sample were absorbed for 2-4 min onto glow-discharged, carbon-coated, Formvar-filmed 400 mesh copper grids and gently wicked away with filter paper. […] Measurements were analyzed, and width-distribution histograms were produced by using EXCEL 98 (Microsoft). […]

A further test has as its target T2, NM protein fibers (Saccharomyces cerevisiae, UniProt P05453).
T2 construct: Soluble Sup35 NM protein (“NM”) was tested for aggregation
T2 sequence (P05453 1-253 limits assumed): T1 sequence (P05453 1-253 limits assumed)
The test can be described thus: NM disaggregation assay. Type of test: biochemical, yeast. As to the method: For determining disaggregation of preformed aggregates, NM protein fibers (equivalent to 5 μM monomer) were incubated with DAPH (0-20 μM), DAPH analogs (0-20 μM) or DMSO (0-2% v/v). The assay mixture was incubated for 24 hr at 25° C., then tested for Congo Red or Thioflavin T binding to determine the extent of NM fibers remaining.
as §1
To measure β-sheet formation, ThT was added to protein or peptide reaction mixtures, such as Aβ samples or NM aggregation, NM disaggregation or NM seed reaction mixtures following incubation and fluorescent measurements were read according to standard procedures.
For measurement, each sample preferably is split into multiple wells of a 96-well black-bottom plate (e.g., catalog no. 35-3943, VWR International, Westchester, Pa.). ThT fluorescence is measured at room temperature (e.g., in a Fluoroskan II at […] or a FLUOstar Optima plate-reader (BMG Lab Technologies, Durham, N.C.) at Ex=440 nm and Em=480 nm). The ThT fluorescence spectrum is measured in an spectrofluorimeter (e.g., f4500, Hitachi, Tokyo) at Ex=435 nm and Em=450-550 nm.

For another test, the target named is amyloid β (Aβ) fibers (Homo sapiens, UniProt P05067). As to conditions: Blanchard et al., PNAS 101:14326-14332, 2004; cited from earlier work.
[4] abbreviates: 1% brain homogenate incubated 48 hours with compound, lower doses of infectivity, log rank test.

Sequence of Aβ4230k (P05067 672-713 limits assumed): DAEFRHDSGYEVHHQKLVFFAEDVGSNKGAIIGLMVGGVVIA
Sequence of Aβ42Total (P05067 672-713 limits assumed): as above
Sequence of Aβ fibrils (P05067 672-713 limits assumed): as above
Sequence of amyloid β (Aβ) fibers (P05067 672-713 limits assumed): as above

In the case of `O=C1NC(=O)c2cc(Nc3ccccc3)c(Nc3ccccc3)cc21` [DAPH, 4,5-dianilinophthalimide], at Aβ4230k (24 h incubation), the “elimination of higher-order structure, EM studies” value is “nearly complete elimination of higher-order structure”. In addition, the “elimination of the usual fibrils, as observed by EM” value on Aβ4230k (coincubation of Aβ4230k with equimolar compound (10:10 μM), 1% DMSO) was “almost complete elimination of the usual fibrils”. Besides, the “ability of NM protein to reform NM fibers following disaggregation” value at Sup35 NM protein [1] was “essentially unable to reform NM fibers”. In addition, on Sup35 NM protein [2], the “effect on NM fiber assembly / NM aggregation (in words)” value is reported as “antagonizes NM fiber assembly”. Further, the “inhibition of NM aggregation” value on Sup35 NM protein [2] (compound 0-20 μM, 24 hr at 25° C., Congo Red binding, FIG. 1, concentration dependent) is recorded as “up to 100%”. The “effect on survival / prion titers (in words)” value in test [3] (setting [4]) is given as “did not significantly alter survival”. Moreover, the “effect of treatment at high doses of infectivity” value in test [3] (high doses of infectivity) is “not observed”. Further, the “time for reversal of the fibrils, as detected by the ThT assay” value at Aβ42Total was “takes only very few minutes”. Moreover, the “reversal of aggregation of Aβ fibrils as determined by EM” value at Aβ fibrils was “reversed the aggregation of the Aβ fibrils”. In addition, the “disaggregation of preformed NM fibers as compared to the DMSO control” value at NM protein fibers (preformed NM aggregates, FIGS. 2 and 3) is recorded as “effective in disaggregation of preformed fibers”. In addition, on NM protein fibers (preformed NM fibers, FIG. 2), the “dissolution of NM fibers as measured by Congo Red binding” value is on record as “partially dissolve NM fibers”. At NM protein fibers (preformed NM fibers, FIG. 3), the “dissolution of NM fibers as measured by ThT fluorescence” value is given as “partially dissolve NM fibers”. Moreover, the “disaggregation of amyloid β (Aβ) fibers” value at amyloid β (Aβ) fibers is on record as “can disaggregate amyloid β (Aβ) fibers”.

Consider `COc1ccc(Nc2cc3c(cc2Nc2ccc(OC)cc2)C(=O)NC3=O)cc1` [DAPH-12, 5,6-Bis-(4-methoxy-phenylamino)-isoindole-1,3-dione], for which the “median survival longer than DMSO controls” value in test [3] (1% brain homogenate incubated 48 hours with compound, lower doses of infectivity, CD1 mice n=4 per group, log rank test) is “at least 60 days”. Also, the “effect on survival / prion titers (in words)” value in test [3] (setting [4]) is listed as “reduction in prion titers”. Besides, at Aβ42Total, the “time for reversal of the fibrils, as detected by the ThT assay” value was “takes only very few minutes”.

These data come from patent US20060142591A1, “DAPH analogs and inhibition of protein aggregation” (priority 2004, published 2006).
